Tests used:
H358 cells = experiment: Cell proliferation assay, H358 cells (Cell-titer Glo); format: cell-based; details: Homo sapiens, NCI-H358, 96 h incubation
Protocol: (§1) Pave the H358 cells on a 96-well ultra-low adsorption plate with 2000 cells and 190 μL/well. After incubating overnight, compound solutions of gradient concentration was prepared, and added 10 μL of DMSO solution of the test compound of each concentration to the cells of each well. The final concentration of the compound is 10000, 3333.3, 1111.1, 370.4, 123.5, 41.2, 13.7, 4.6, 1.5, 0 nM (the final concentration of DMSO is 0.25%). Incubated for 96 h at 37° C. and 5% CO2. 50 μL of Cell-titer Glo working solution was added to each well, shaked and mixed, and incubated at room temperature for 10 minutes. The multi-functional microplate reader read the luminescence value, and converted the luminescence value reading into inhibition percentage.
(§2) Inhibition percentage=(maximum value−reading)/(maximum value−minimum value)*100.
(§3) The “maximum value” was the DMSO control, the “minimum value” indicates the cell-free control group.
(§4) Graphpad Prism software was used to perform curve fitting and obtain IC50 value.
Refer to table 3 for the IC50 data of some compounds in the Examples for inhibiting H358 cells.

MIA-PACA-2 cells = experiment: Cell proliferation assay, MIA-PACA-2 cells (Cell-titer Glo); format: cell-based; details: Homo sapiens, 96 h incubation
Protocol: as §1, with “the MIA-PACA-2” for “the H358”, “cells into” for “cells on”, “plate at 600 cells, 160” for “plate with 2000 cells and 190”, “added 40” for “added 10”, “10000, 2000, 400, 80, 16, 3.2, 0.64, 0.12, 0.025,” for “10000, 3333.3, 1111.1, 370.4, 123.5, 41.2, 13.7, 4.6, 1.5,”
as §2, §3, §4
Refer to Table 3 for the IC50 data of some compounds in the examples inhibiting MIA-PACA-2 cells.

SMILES | IC50 (H358 cells) | IC50 (MIA-PACA-2 cells)
C=CC(=O)N1CC2(CCN(c3nc(C4CCN(C5CCC(C#N)CC5)CC4)nc4c(OCC(F)(F)F)c(-c5c(C)ccc6[nH]ncc56)c(C=C)cc34)CC2)C1 (stereo not drawn) [Example 67, 4-(4-(4-(2-acryloyl-2,7-diazazospiro [3.5]nonan-7-yl)-7-(5-methyl-1H-indazole-4-yl)-8-(2,2,2-trifluoroethoxy)-6-vinylquinazolin-2-yl)piperidin-1-yl) cyclohexane-1-methylnitrile] | 4.6 nM | 6.9 nM
C=CC(=O)N1CC2(CCN(c3nc(C4CCN(C(=O)OC)CC4)nc4c(OCC(F)(F)F)c(-c5c(C)ccc6[nH]ncc56)c(C=C)cc34)CC2)C1 [Example 62, Methyl 4-(4-(2-acryloyl-2,7-diazspiro [3.5]nonan-7-yl)-7-(5-methyl-1H-indazole-4-yl)-8-(2,2,2-trifluoroethoxy)-6-vinylquinazolin-2-yl) piperidine-1-carboxylic acid] | 29.3 nM | 43.5 nM
C=CC(=O)N1CC2(CCN(c3nc(C4CN(C5CCC5)C4)nc4c(OCC(F)(F)F)c(-c5c(C)ccc6[nH]ncc56)c(CC)cc34)CC2)C1 [Example 43, 1-(7-(2-(1-cyclobutylazocyclobutane-3-yl)-6-ethyl-7-(5-methyl-1H-indazole-4-yl)-8-(2,2,2-trifluoroethoxy)quinazolin-4-yl)-2,7-diazarospiro [3.5]nonan-2-yl) propyl-2-en-1-one] | 315 nM | 378 nM
C=CC(=O)N1CC2(CCN(c3nc(C4CCN(C)CC4)nc4c(OCCOC)c(-c5c(C)ccc6[nH]ncc56)c(C5CC5)cc34)CC2)C1 [Example 22, 1-(7-(6-cyclopropyl-8-(2-methoxyethoxy)-7-(5-methyl-1H-indazol-4-yl)-2-(1-methylpiperidin-4-yl)quinazolin-4-yl)-2,7-diazaspiro[3.5]nonan-2-yl)prop-2-en-1-one] | 49.6 nM | 21 nM
C=CC(=O)N1CCC(c2nc(N3CCC4(CC3)CN(C(=O)C=C)C4)c3cc(C=C)c(-c4c(C)ccc5[nH]ncc45)c(OCC(F)(F)F)c3n2)CC1 [Example 64, 1-(4-(4-(2-acryloyl-2,7-diazazospiro [3.5]nonan-7-yl)-7-(5-methyl-1H-indazole-4-yl)-8-(2,2,2-trifluoroethoxy)-6-vinylquinazolin-2-yl)piperidin-1-yl) propyl-2-en-1-one] | 16.6 nM | 57.1 nM
C=CC(=O)N1CC2(CCN(c3nc(C4CCN(C)CC4)nc4c(OCC(F)(F)F)c(-c5c(C)ccc6[nH]ncc56)c(Cl)cc34)CC2)C1 [Example 32, 1-(7-(6-chloro-7-(5-methyl-1H-indazol-4-yl)-2-(1-methylpiperidin-4-yl)-8-(2,2,2-trifluoroethoxy)quinazoline-4-yl)-2,7-diazaspiro[3.5]nonan-2-yl)prop-2-en-1-one] | 17.9 nM | 16.7 nM
C=CC(=O)N1CC2(CCN(c3nc(C4CCN(C)CC4)nc4c(OCC(F)(F)F)c(-c5c(C)cnc6[nH]ncc56)c(C=C)cc34)CC2)C1 [Example 53, 1-(7-(7-(5-methyl-1H-pyrazolo[3,4-b]pyridin-4-yl)-2-(1-methylpiperidine-4-yl)-8-(2,2,2-trifluoroethoxy)-6-vinylquinazolin-4-yl)-2,7-diazaspiro[3.5]nonan-2-yl)prop-2-en-1-one] | 163 nM | 105 nM
C=CC(=O)N1CC2(CCN(c3nc(C4CCN(C5CC6CCC(C5)N6C)CC4)nc4c(OCC(F)(F)F)c(-c5c(C)ccc6[nH]ncc56)c(C=C)cc34)CC2)C1 (stereo not drawn) [Example 83, 1-(7-(7-(5-methyl-1H-indazole-4-yl)-2-(1-(8-methyl-8-azabicyclo [3.2.1]cindan-3-yl]piperidin-4-yl)8(2,2,2-trifluoroethoxy)-6-vinylquinazolin-4-yl)-2,7-diazspiro [3.5]nonan-2-yl) propyl-2-en-1-one] | 159 nM | 136 nM
C=CC(=O)N1CC2(CCN(c3nc(C4CCN(C)CC4)nc4c(OCC(F)(F)F)c(-c5cc(F)cc(F)c5)c(C5CC5)cc34)CC2)C1 [Example 20] | 4200 nM | 1320 nM
C=CC(=O)N1CC2(CCN(c3nc(C4CCN(C5COC5)CC4)nc4c(OCC(F)(F)F)c(-c5c(C)ccc6[nH]ncc56)c(C=C)cc34)CC2)C1 [Example 65, 1-(7-(7-(5-methyl-1H-indazol-4-yl)-2-(1-(oxacyclobutan-3-yl)piperidin-4-yl)-8-(2,2,2-trifluoroethoxy)-6-vinylquinazolin-4-yl)-2,7-diazspiro [3.5]nonan-2-yl) propyl-2-en-1-one] | 4.4 nM | 8.9 nM
C=CC(=O)N1CC2(CCN(c3nc(C4CCN(CCO)CC4)nc4c(OCC(F)(F)F)c(-c5c(C)ccc6[nH]ncc56)c(C=C)cc34)CC2)C1 [Example 61, 1-(7-(2-(1-(2-(hydroxyethyl))piperidin-4-yl)-7-(5-methyl-1H-indazole-4-yl)-8-(2,2,2-trifluoroethoxy)-6-vinylquinazolin-4-yl)-2,7-diazarospiro [3.5]nonan-2-yl) propyl-2-en-1-one] | 4.9 nM | 8 nM
C=CC(=O)N1CC2(CCN(c3nc(C4CCN(C)CC4)nc4c(OCCOC)c(C5CC5)c(C5CC5)cc34)CC2)C1 [Example 23] | 1700 nM | 647 nM
C=CC(=O)N1CC2(CCN(c3nc(C4CCN(C5COC5)CC4)nc4c(OCC(F)(F)F)c(-c5c(C)ccc6[nH]ncc56)c(CC)cc34)CC2)C1 [Example 37] | 18.4 nM | 23.4 nM
C=CC(=O)N1CC2(CCN(c3nc(C4CCN(Cc5cnn(C)c5)CC4)nc4c(OCC(F)(F)F)c(-c5c(C)ccc6[nH]ncc56)c(C=C)cc34)CC2)C1 [Example 78, 1-(7-(7-(5-methyl-1H-indazol-4-yl)-2-(1-((1-methyl-1H-pyrazol-4-yl)methyl)piperidin-4-yl]-8-(2,2,2-trifluoroethoxy)-6-vinylquinazolin-4-yl)-2,7-diazarospiro [3.5]nonan-2-yl) propyl-2-en-1-one] | 27.2 nM | 62.8 nM
C=CC(=O)N1CC2(CCN(c3nc(C4CCN(C5CCOC5)CC4)nc4c(OCC(F)(F)F)c(-c5c(C)ccc6[nH]ncc56)c(C=C)cc34)CC2)C1 (stereo not drawn) [Example 79, 1-(7-(7-(5-methyl-1H-indazol-4-yl)-2-(1-(tetrahydrofuran-3-yl)piperidin-4-yl)-8-(2,2,2-trifluoroethoxy)-6-vinylquinazolin-4-yl)-2,7-diazspiro [3.5]nonan-2-yl) propyl-2-en-1-one] | 2.7 nM | 3.5 nM
C=CC(=O)N1CC2(CCN(c3nc(C4CCN(C5CCN(C(C)=O)CC5)CC4)nc4c(OCC(F)(F)F)c(-c5c(C)ccc6[nH]ncc56)c(C=C)cc34)CC2)C1 [Example 72, 1-(7-(2-(1acetyl-[1,4'-bipiperidine]-4-yl)-7-(5-methyl-1H-indazole-4-yl)-8-(2,2,2-trifluoroethoxy)-6-vinylquinazolin-4-yl)-2,7-diazspiro [3.5]nonan-2-yl) propyl-2-en-1-one] | 5.2 nM | 5.9 nM
C=CC(=O)N1CC2(CCN(c3nc(C4CCN(C)CC4)nc4c(OCC(F)F)c(-c5c(C)ccc6[nH]ncc56)c(C5CC5)cc34)CC2)C1 [Example 24, 1-(7-(6-cyclopropyl-8-(2,2-difluoroethoxy)-7-(5-methyl-1H-indazol-4-yl)-2-(1-methylpiperidin-4-yl)quinazolin-4-yl)-2,7-diazaspiro[3.5]nonan-2-yl)prop-2-en-1-one] | 17.7 nM | 14.5 nM
C=CC(=O)N1CC2(CCN(c3nc(C4CCN(C5CC(O)C5)CC4)nc4c(OCC(F)(F)F)c(-c5c(C)ccc6[nH]ncc56)c(C=C)cc34)CC2)C1 (stereo not drawn) [Example 80] | 14.9 nM | 46.1 nM
C=CC(=O)N1CC2(CCN(c3nc(C4CCN(C5CCN(C6CC6)CC5)CC4)nc4c(OCC(F)(F)F)c(-c5c(C)ccc6[nH]ncc56)c(C=C)cc34)CC2)C1 [Example 74, 1-(7-(2-(1′-cyclopropyl-[1,4′-bipiperidine]-4-yl)-7-(5-methyl-1H-indazole-4-yl)-8-(2,2,2-trifluoroethoxy)-6-vinylquinazolin-4-yl)-2,7-diazspiro [3.5]nonan-2-yl) propyl-2-en-1-one] | 6.7 nM | 10.3 nM
C=CC(=O)N1CC2(CCN(c3nc(C4CCN(C)CC4)nc4c(OC5CCC5)c(-c5c(C)ccc6[nH]ncc56)c(CC)cc34)CC2)C1 [Example 26] | 24.9 nM | 68.2 nM
C=CC(=O)N1CC2(CCN(c3nc(C4CCN(C5CCN(C)CC5)CC4)nc4c(OCC(F)(F)F)c(-c5c(C)ccc6[nH]ncc56)c(C=C)cc34)CC2)C1 [Example 66, 1-(7-(7-(5-methyl-1H-indazol-4-yl)-2-(1′-methyl-[1,4-bipiperidine]-4-yl)-8-(2,2,2-trifluoroethoxy)-6-vinylquinazolin-4-yl)-2,7-diazspiro [3.5]nonan-2-yl) propyl-2-en-1-one] | 11.5 nM | 8.5 nM
